Measured values taken from article PMC6369734, “Spy vs. spy: selecting the best reporter for ^19F NMR competition experiments” (Chemical Communications (Cambridge, England), 2019).
Like-named read-outs stand apart in the source and are kept apart here.

What was measured:
[1] = biological target: T1, VHL (VBC complex: pVHL54-213, eloB1-104, eloC17-112) (Homo sapiens, UniProt P40337); experiment: Surface plasmon resonance (SPR) steady-state binding to immobilised biotinylated AviVBC; set-up: key to K D, SPR (footnote symbol instead of value): ^c: High responses in the SPR experiments, promiscuous or unspecific binders
T1 construct: equimolar complex of pVHL54-213, eloB1-104 and; made in house; host or cells: E. coli
Procedure: The KD of each compound to VHL was determined by surface plasmon resonance (SPR) experiments.
3. Protein expression, purification and biotinylation
The VHL E3 ligase is a multi-protein complex composed of five proteins: VHL protein (pVHL), elongin B (eloB), elongin C (eloC), Cullin-2 (Cul2) and Ring-box protein 1 (Rbx1).[3] Since the compounds developed in this work bind solely to the VHL protein, the VBC complex (equimolar complex of pVHL54-213, eloB1-104 and eloC17-112) was used in all experiments, as it can be readily expressed in E. coli with high yields,[4] while the full E3 ligase would require baculovirus-insect cells expression system.[5] The expression and purification of VBC was performed as described previously by our group[2] and employed directly in all NMR experiments.
For the surface plasmon resonance (SPR) experiments, a VBC complex containing an AviTagTM in the N-terminus of eloB (AviVBC) was purified using the same procedure described for VBC. The modified eloB/eloC expression plasmid was previously developed in-house by Dr. Michael Roy and kindly shared. The AviVBC complex was site-specifically biotinylated in the AviTag using the GST-BirA method previously described by […]
4. Surface plasmon resonance experiments
The SPR experiments were performed with a Biacore T200 instrument (GE Healthcare). All measurements were performed at 20 °C with buffer containing 10 mM HEPES, pH 7.5, 150 mM NaCl, 1 mM TCEP, 0.005% (v/v) Tween® 20 and 2% (v/v) dimethyl sulfoxide (DMSO). Biotinylated AviVBC (~0.5 μM) was immobilised at 22 °C onto a Series S sensor chip SA (GE Heathcare) to levels of approximately 3500-4000 response units […]
Solutions of each spy molecule were prepared in buffer at concentrations based on previous structure-activity relationship studies of VHL ligands (K D expected in the nanomolar range for structures like spy molecules 16 and 22, or in the milimolar range for spy molecules similar to 1 and 9). From this first screen, the binding affinities were roughly estimated using the Biacore T200 evaluation software (GE Healthcare), then measurements were repeated using concentrations above and below the KD obtained in the first round to generate better curves for fitting the data accurately. Contact and dissociation times varied across the different compounds tested, but in […]
dissociated from the surface in less than sixty seconds.
Data analysis was performed using the steady state responses of the double-referenced sensorgrams (raw data subtracted from blank and reference surface injections) obtained for each concentration tested. These responses were plotted against the respective concentrations and the data fitted to a 1: 1 binding model u sing the Biacore T200 evaluation software and the following equation: […]
Where Req is the steady-state response at a given concentration C. Deviations in Req were corrected by adding an ‘offset’ term to the equation. KD is the dissociation constant to be determined and RMAX is the maximum response expected for a given compound according to the equation below:
Where n is the stoichiometry of the interaction ( in this case, n = 1) and RProtein is the immobilization level of protein. MWCompound and MWProtein are the molecular weights of compound and protein, respectively. Sensorgrams and fitting parameters for all spy molecules can be found in section 7.

[2] = biological target: T2, VHL (VBC complex) (Homo sapiens, UniProt P40337); experiment: 19F CPMG NMR transverse relaxation rate (R2) and R2 contrast (C2) of spy molecule with and without protein; type: binding; conditions: for R2 contrast – C2: supplement 8.1
T2 construct: equimolar complex of pVHL54-213, eloB1-104 and; made in house; host or cells: E. coli
Description: Due to the large CSA of fluorine and the significant differences in the fluorine isotropic chemical shift (δF) between the free and bound states, the transverse relaxation rate (R2) is a well-established sensitive parameter to detect ligand binding.[4] Therefore, fluorine NMR experiments including a Carr–Purcell–Meiboom–Gill (CPMG) spin-echo filter[10] before acquisition were employed to monitor ligand binding to VHL by measuring peak intensity, as changes in other NMR parameters, such as chemical shift and peak width, were not as significant. The R2 values of the CF3 peak of each compound in the absence and in the presence of protein were determined by performing multiple ^19F CPMG experiments varying the CPMG filter (Fig. 2a). To quantify the shift in R2 upon binding, the R2 contrast (C2)[11] was determined. Ideally, a good spy molecule should have a large increase in R2 (fast relaxation) when protein is present, resulting in a large assay window for the competition experiments (Fig. 2b).
5. Measurement of the transverse relaxation rates by 19F CPMG NMR
All the NMR experiments were performed in a 500 MHz Bruker AVANCE N MR spectrometer equipped with a CPQCI -F cryoprobe. To measure the transverse relaxation rates (R 2), a solution of each spy molecule at 100 μM was prepared in 50 mM potassium phosphate monobasic (KH2PO4), pH 7.5, 100 mM NaCl, 1 mM TCEP, 2% (v/v) DMSO, 20% D2O and 10 µM trifluoroacetic acid (TFA). For each solution, 19F CPMG experiments […]
Due to the fast relaxation of molecules 21 and 22, these experiments were repeated with shorter CPMG filters (50, 100, 150, 200, 300, 400, 700 and 1000 ms). The fluorine peaks were integrated and plotted against the resp ective CPMG filters. The R 2 relaxation rates were obtained from fitting the data as a n exponential decay (GraphPad Prism 6) according to the equation below: [7]
Where I(t) is the 19F signal intensity or integral, t is the total CPMG filter in seconds, I(0) is the signal intensity when t = 0. To obtain the R2 upon addition of prot ein, all the experiments above were repeated in presence of VBC at 1 µM. Experiments were performed as triplicates and the R 2 contrasts (C2) were obtained according to the equation below: [8]
Where R2Free is the R2 obtained for the spy molecule free in solution and R2Observed is the R2 obtained with the spy molecule in presence of VBC. The raw data, fitting, R2 and C2 values for each spy molecule can be found in section 8.1. For the R2 measurements using molecule 19 at varied concentrations of spy molecule and protein, see section 8.2 . For the R2 measurements using spy molecules 6 and 11 (used to generate figures S 2, S3 and S4) see

[3] = biological target: T2, VHL (VBC complex); experiment: as above; type: binding; conditions: for R2 contrast – C2: section 8.3: spy molecules at 50 μM, VBC 1 μM
[4] = SPR, 20 °C, steady-state 1:1 fit, footnote b values fitted because RMAX was not reached experimentally, read-out: K D, SPR
[5] = SPR, responses too low, data could not be fitted, read-out: KD
[6] = Spy molecule 100 μM, no protein
[7] = SPR steady-state fit, supplement section 7, read-out: KD (Biacore T200 fit)
[8] = section 8.3: spy molecules at 50 μM in absence of VBC (sub-head prints Spy molecule 100 μM)
[9] = section 8.3: spy molecules at 50 μM in presence of VBC 1 μM (sub-head prints 100 μM)
[10] = SPR fit with very large error or RMAX above theoretical, unspecific / promiscuous binding suspected, read-out: KD (Biacore T200 fit, judged unreliable)

T2 sequence (P40337 54-213): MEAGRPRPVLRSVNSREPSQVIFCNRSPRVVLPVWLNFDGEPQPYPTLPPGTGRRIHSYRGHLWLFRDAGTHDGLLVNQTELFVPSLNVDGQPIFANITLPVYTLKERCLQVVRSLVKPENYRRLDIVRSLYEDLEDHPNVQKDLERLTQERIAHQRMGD
T2 sequence (Q15370 1-104 partner limits assumed): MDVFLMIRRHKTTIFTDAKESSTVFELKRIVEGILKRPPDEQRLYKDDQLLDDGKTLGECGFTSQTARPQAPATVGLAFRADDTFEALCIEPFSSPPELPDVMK
T2 sequence (Q15369 17-112 partner limits assumed): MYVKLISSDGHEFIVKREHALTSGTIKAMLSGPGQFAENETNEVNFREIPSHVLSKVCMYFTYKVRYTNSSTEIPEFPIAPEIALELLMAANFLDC
T1 sequence (P40337 54-213): as the sequence (P40337 54-213) above
T1 sequence (Q15370 1-104 partner limits assumed): as the sequence (Q15370 1-104 partner limits assumed) above
T1 sequence (Q15369 17-112 partner limits assumed): as the sequence (Q15369 17-112 partner limits assumed) above

SMILES	Kd [1, 4]	Kd [1, 5]	R2 ([2]; Spy molecule 100 μM + VBC 1 μM)	R2 contrast – C2 ([2]; Spy molecule 100 μM + VBC 1 μM)	R2 [2, 6]	Kd [1, 7]	R2 [3, 8]	R2 [3, 9]	R2 contrast – C2 [3]	K D, SPR (footnote symbol instead of value) ([1]; SPR)	Kd [1, 10]	binding kinetics / dissociation rates by SPR ([1]; SPR)	SPR binding behaviour ([1]; SPR, supplement section 7)
O=C(NCc1ccc(Br)c(C(F)(F)F)c1)[C@@H]1C[C@@H](O)CN1 [Compound 1]	> 1500 µM	> 1000 µM	1.115 ± 0.020 s⁻¹	4.1 ± 3.1%	1.069 ± 0.028 s⁻¹	–	–	–	–	–	–	–	–
CC(=O)N1C[C@H](O)C[C@H]1C(=O)NCc1ccc(Br)c(C(F)(F)F)c1 [Compound 2]	657 ± 49 µM	–	1.251 ± 0.021 s⁻¹	6.5 ± 2.2%	1.170 ± 0.019 s⁻¹	657 µM	–	–	–	–	–	–	–
Cc1ncsc1-c1ccc(CNC(=O)[C@@H]2C[C@@H](O)CN2)cc1C(F)(F)F [Compound 5]	> 1500 µM	> 1000 µM	0.936 ± 0.011 s⁻¹	2.2 ± 1.8%	0.915 ± 0.012 s⁻¹	–	–	–	–	–	–	–	–
CC(=O)N1C[C@H](O)C[C@H]1C(=O)NCc1ccc(-c2scnc2C)c(C(F)(F)F)c1 [Compound 6]	878 ± 98 µM	–	1.760 ± 0.039 s⁻¹	37.7 ± 2.6%	1.096 ± 0.020 s⁻¹	878 µM	1.255 ± 0.043 s⁻¹	1.951 ± 0.062 s⁻¹	35.7 ± 4.0%	–	–	–	–
O=C(NCc1ccc(Br)cc1C(F)(F)F)[C@@H]1C[C@@H](O)CN1 [Compound 9]	> 1500 µM	> 1000 µM	1.279 ± 0.022 s⁻¹	0.9 ± 2.7%	1.268 ± 0.026 s⁻¹	–	–	–	–	–	–	–	–
CC(C)(C)CC(=O)N1C[C@H](O)C[C@H]1C(=O)NCc1ccc(Br)cc1C(F)(F)F [Compound 11]	110 ± 9 µM	–	2.740 ± 0.096 s⁻¹	47.9 ± 4.1%	1.427 ± 0.033 s⁻¹	110 µM	1.534 ± 0.071 s⁻¹	3.122 ± 0.145 s⁻¹	50.9 ± 5.7%	–	–	–	–
Cc1ncsc1-c1ccc(CNC(=O)[C@@H]2C[C@@H](O)CN2)c(C(F)(F)F)c1 [Compound 13]	–	–	1.609 ± 0.017 s⁻¹	3.2 ± 2.0%	1.558 ± 0.028 s⁻¹	–	–	–	–	^c	2530 µM	–	unspecific / promiscuous binding to the protein surface
CC(=O)N1C[C@H](O)C[C@H]1C(=O)NCc1ccc(-c2scnc2C)cc1C(F)(F)F [Compound 14]	–	–	3.425 ± 0.073 s⁻¹	53.9 ± 2.5%	1.579 ± 0.022 s⁻¹	–	–	–	–	^c	223 µM	–	bind unspecifically / promiscuously to the protein surface
O=C(NCc1ccc(Br)cc1)C1CC(O)CN1C(=O)C(F)(F)F (stereo not drawn) [Compound 17]	645 ± 100 µM	–	3.189 ± 0.066 s⁻¹	62.0 ± 2.6%	1.213 ± 0.028 s⁻¹	–	–	–	–	–	–	–	–

Further molecules by falling Kd [1, 4], results first:

Kd [1, 4]	Kd [1, 5]	R2 ([2]; Spy molecule 100 μM + VBC 1 μM)	R2 contrast – C2 ([2]; Spy molecule 100 μM + VBC 1 μM)	R2 [2, 6]	Kd [1, 7]	R2 [3, 8]	R2 [3, 9]	R2 contrast – C2 [3]	K D, SPR (footnote symbol instead of value) ([1]; SPR)	Kd [1, 10]	binding kinetics / dissociation rates by SPR ([1]; SPR)	SMILES	SPR binding behaviour ([1]; SPR, supplement section 7)
67.1 ± 14 µM	–	3.614 ± 0.088 s⁻¹	62.1 ± 3.0%	1.368 ± 0.033 s⁻¹	67.1 µM	–	–	–	–	–	–	Cc1ncsc1-c1ccc(CNC(=O)[C@@H]2C[C@@H](O)CN2C(=O)CC(C)(C)C)cc1C(F)(F)F [Compound 7]	–
35.2 ± 7 µM	–	2.634 ± 0.058 s⁻¹	41.3 ± 2.7%	1.545 ± 0.035 s⁻¹	35.2 µM	–	–	–	–	–	–	Cc1ncsc1-c1ccc(CNC(=O)[C@@H]2C[C@@H](O)CN2C(=O)CC(C)(C)C)c(C(F)(F)F)c1 [Compound 15]	–
4.39 ± 0.12 µM	–	1.924 ± 0.037 s⁻¹	38.9 ± 2.5%	1.175 ± 0.027 s⁻¹	4.39 µM	–	–	–	–	–	–	CC(=O)NC(C(=O)N1CC(O)CC1C(=O)NCc1ccc(Br)c(C(F)(F)F)c1)C(C)(C)C (stereo not drawn) [Compound 4]	–
2.99 ± 0.75 µM	–	1.639 ± 0.022 s⁻¹	17.7 ± 2.2%	1.349 ± 0.027 s⁻¹	2.99 µM	–	–	–	–	–	–	CC(=O)NC(C(=O)N1CC(O)CC1C(=O)NCc1ccc(-c2scnc2C)c(C(F)(F)F)c1)C(C)(C)C (stereo not drawn) [Compound 8]	–
0.447 ± 0.085 µM	–	4.109 ± 0.247 s⁻¹	3.7 ± 8.8%	3.959 ± 0.262 s⁻¹	0.447 µM	–	–	–	–	–	too high to be determined accurately	CC(C)(C)C(NC(=O)C(F)(F)F)C(=O)N1CC(O)CC1C(=O)NCc1ccc(Br)cc1 (stereo not drawn) [Compound 21]	–
0.268 ± 0.03 µM	–	1.828 ± 0.031 s⁻¹	1.3 ± 2.4%	1.805 ± 0.032 s⁻¹	0.268 µM	–	–	–	–	–	too high to be determined accurately	CC(=O)NC(C(=O)N1CC(O)CC1C(=O)NCc1ccc(-c2scnc2C)cc1C(F)(F)F)C(C)(C)C (stereo not drawn) [Compound 16]	–
